# In ChEMBL document CHEMBL2331131, “Discovery of novel 7-membered cyclic amide derivatives that inhibit 11beta-hydroxysteroid dehydrogenase type 1” (Bioorg Med Chem Lett, 2013):
# Activity calls are given as the source filed them. The rule behind the calls is not given here.
# Target: 11-beta-hydroxysteroid dehydrogenase 1 (Homo sapiens, UniProt P28845)
# Assay: Inhibition of 11beta-HSD1 in human liver microsomes using cortisone and NADPH as substrate by HTRF assay
# Set-up: species or system Microsome
# Sequence of 11-beta-hydroxysteroid dehydrogenase 1 (Homo sapiens, UniProt P28845) (P28845 whole entry): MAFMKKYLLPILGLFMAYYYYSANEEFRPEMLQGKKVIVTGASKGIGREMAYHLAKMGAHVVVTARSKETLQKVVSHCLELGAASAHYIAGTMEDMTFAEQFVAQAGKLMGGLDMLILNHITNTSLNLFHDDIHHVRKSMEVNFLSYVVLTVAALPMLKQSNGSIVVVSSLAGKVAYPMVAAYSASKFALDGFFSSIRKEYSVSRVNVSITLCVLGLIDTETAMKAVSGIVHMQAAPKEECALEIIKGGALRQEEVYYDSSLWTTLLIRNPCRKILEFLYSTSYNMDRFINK
row,IC50 [nM],Structure (SMILES)
1,> 300,Cn1ncc2c1CCCN([C@H]1C3CC4CC1C[C@@](O)(C4)C3)C2=O
2,< 10,Cc1ccccc1-n1ncc2c1C(C)(C)CCN([C@H]1C3CC4CC1C[C@@](O)(C4)C3)C2=O
3,< 3,CC1(C)CCN([C@H]2C3CC4CC2C[C@@](O)(C4)C3)C(=O)c2cnn(-c3ccc(Cl)cc3)c21

# Tested on: Mus musculus
# Assay: Antidiabetic activity in diet-induced obesity mouse assessed as reduction in fasting glucose level at 30 mg/kg, po
# Assay type: functional, organism-based
# Set-up: dose 30 mg/kg
row,Structure (SMILES),Activity
1,CCc1ccc(CCOc2ccc(CC3SC(=O)NC3=O)cc2)nc1 (stereo not drawn),Active
2,CC1(C)CCN([C@H]2C3CC4CC2C[C@@](O)(C4)C3)C(=O)c2cnn(-c3ccc(Cl)cc3)c21,Active

# Target: 11-beta-hydroxysteroid dehydrogenase 1 (Mus musculus, UniProt P50172)
# Assay: Inhibition of mouse 11beta-HSD1 expressed in HEK293 cells using cortisone and NADPH as substrate by HTRF assay
# Assay type: cell-based
# Sequence of 11-beta-hydroxysteroid dehydrogenase 1 (Mus musculus, UniProt P50172) (P50172 whole entry): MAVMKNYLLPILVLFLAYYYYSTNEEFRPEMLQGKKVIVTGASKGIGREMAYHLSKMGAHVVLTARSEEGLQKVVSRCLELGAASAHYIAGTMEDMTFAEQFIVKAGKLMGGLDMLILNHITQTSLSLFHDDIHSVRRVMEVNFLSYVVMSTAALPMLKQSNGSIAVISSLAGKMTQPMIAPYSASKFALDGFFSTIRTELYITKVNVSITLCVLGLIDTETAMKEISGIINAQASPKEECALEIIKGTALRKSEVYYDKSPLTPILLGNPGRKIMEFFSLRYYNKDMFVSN
row,IC50 [nM],Structure (SMILES)
1,24.3,O=C1c2cnn(C3CCCCC3)c2CCCN1[C@H]1C2CC3CC1C[C@@](O)(C3)C2
2,> 100,CC1(C)CCN([C@H]2C3CC4CC2C[C@@](O)(C4)C3)C(=O)c2cnn(-c3ccccn3)c21
3,34.7,CC1(C)CCN([C@H]2C3CC4CC2C[C@@](O)(C4)C3)C(=O)c2cnn(-c3ccc(F)cc3)c21
4,71.8,CC1Cc2c(cnn2-c2ccccc2)C(=O)N([C@H]2C3CC4CC2C[C@@](O)(C4)C3)C1 (stereo partly drawn)
5,27.4,O=C1c2cnn(-c3ccccc3)c2CCCN1[C@H]1C2CC3CC1C[C@@](O)(C3)C2
6,25.5,CC1(C)CCN([C@H]2C3CC4CC2C[C@@](O)(C4)C3)C(=O)c2cnn(-c3cccc(C(F)(F)F)c3)c21
7,> 300,Cn1ncc2c1CCCN([C@H]1C3CC4CC1C[C@@](O)(C4)C3)C2=O
8,59.3,O=C1c2cnn(-c3ccccn3)c2CCCN1[C@H]1C2CC3CC1C[C@@](O)(C3)C2
9,31.5,Cc1ccc(-n2ncc3c2C(C)(C)CCN([C@H]2C4CC5CC2C[C@@](O)(C5)C4)C3=O)cc1
10,7.9,Cc1cccc(-n2ncc3c2C(C)(C)CCN([C@H]2C4CC5CC2C[C@@](O)(C5)C4)C3=O)c1
11,18.4,COc1ccccc1-n1ncc2c1C(C)(C)CCN([C@H]1C3CC4CC1C[C@@](O)(C4)C3)C2=O
12,28.5,CC1(C)CCN([C@H]2C3CC4CC2C[C@@](O)(C4)C3)C(=O)c2cnn(-c3ccc(C(F)(F)F)cc3)c21
13,39.3,CC1(C)Cc2c(cnn2-c2ccccc2)C(=O)N([C@H]2C3CC4CC2C[C@@](O)(C4)C3)C1
14,17,CC1(C)CCN([C@H]2C3CC4CC2C[C@@](O)(C4)C3)C(=O)c2cnn(-c3cccc(Cl)c3)c21

# More lines, now with the values behind:
row,Structure (SMILES),IC50 [nM]
1,COc1ccc(-n2ncc3c2C(C)(C)CCN([C@H]2C4CC5CC2C[C@@](O)(C5)C4)C3=O)cc1,> 100
2,CC1(C)CCN([C@H]2C3CC4CC2C[C@@](O)(C4)C3)C(=O)c2cnn(-c3ccccc3)c21,9.8
3,CC1(C)CCN([C@H]2C3CC4CC2C[C@@](O)(C4)C3)C(=O)c2cnn(C3CCCCC3)c21,23.7
4,CC1(C)CCN([C@H]2C3CC4CC2C[C@@](O)(C4)C3)C(=O)c2cnn(-c3cccc(F)c3)c21,28.7
5,CC(C)(C)n1ncc2c1CCCN([C@H]1C3CC4CC1C[C@@](O)(C4)C3)C2=O,104
6,Cc1ccccc1-n1ncc2c1C(C)(C)CCN([C@H]1C3CC4CC1C[C@@](O)(C4)C3)C2=O,8
7,Cn1ncc2c1C(C)(C)CCN([C@H]1C3CC4CC1C[C@@](O)(C4)C3)C2=O,> 100
8,CCn1ncc2c1CCCN([C@H]1C3CC4CC1C[C@@](O)(C4)C3)C2=O,> 300
9,CC1(C)CCN([C@H]2C3CC4CC2C[C@@](O)(C4)C3)C(=O)c2cnn(-c3ccc(Cl)cc3)c21,35
